Measured values as given in patent US11964981B1, “Substituted pyrimido[4,5-b]indoles as CK2 inhibitors” (KING FAISAL UNIVERSITY, priority 2023, dated 2024).
pIC50: −log10 of the molar value.

How the values were obtained:
PC3 (prostate) = assay: In vitro cytotoxic activity MTT assay, PC3; assay type: cell-based; settings: Homo sapiens, Prostate cell; PC3 (prostate) cells, exposed for 96 hours; read-out: IC50, concentration of compound eliciting a 50% inhibition of cell proliferation
Protocol: (§1) Compounds 1-16 were screened for their in vitro cytotoxic activity utilizing a 3-(4,5-dimethyl-thiazol-2-yl)-2,5-diphenyltetrazolium bromide (MTT) assay against selected cancer human cell lines consisting of PC3 (prostate), HCT116 (colon), A375 (melanoma), H1299 (lung), MIAPaCa-2 (pancreas), HL60 (leukemia), MCF7 (breast), MDA-MB-231 (breast) (T. Mosmann, J. Immunol. Meth., 1983, 65, 55-63). The cells were cultured at 37° C. in RMPI1640 medium supplemented with 10% fetal bovine serum, 50 IU/mL penicillin, and 50 μg/mL streptomycin in a 5% CO2 incubator. All cells were sub-cultured 3 times/week by trypsinisation. Viable cells were seeded and allowed to adhere for 12 h before a test drug was added in 96-well plates at an initial density of 1.0×10^5 cells/mL. Tumor cell lines were separately exposed to various concentrations of the tested compounds followed by incubation at a temperature of 37° C. during 96 h inside a medium of fresh RMPI 1640. Cells were subsequently incubated at 37° C. using MTT at 0.5 mg/mL during 4 hours. After removal of supernatant, formazan crystals were dissolved in isopropanol and the optical density was measured at 570 nm. CX-4945 was used as a positive control.

MCF7 (breast) = assay: In vitro cytotoxic activity MTT assay, MCF7; assay type: cell-based; settings: Homo sapiens; MCF7 (breast) cells, exposed for 96 hours; read-out: IC50, concentration of compound eliciting a 50% inhibition of cell proliferation
Protocol: as §1

MIAPaCa-2 (pancreas) = assay: In vitro cytotoxic activity MTT assay, MIAPaCa-2; assay type: cell-based; settings: Homo sapiens, MIA PaCa-2; MIAPaCa-2 (pancreas) cells, exposed for 96 hours; read-out: IC50, concentration of compound eliciting a 50% inhibition of cell proliferation
Protocol: as §1

HL60 (leukemia) = assay: In vitro cytotoxic activity MTT assay, HL60; assay type: cell-based; settings: Homo sapiens, HL-60; HL60 (leukemia) cells, exposed for 96 hours; read-out: IC50, concentration of compound eliciting a 50% inhibition of cell proliferation
Protocol: as §1

H1299 (lung) = assay: In vitro cytotoxic activity MTT assay, H1299; assay type: cell-based; settings: Homo sapiens, NCI-H1299; H1299 (lung) cells, exposed for 96 hours; read-out: IC50, concentration of compound eliciting a 50% inhibition of cell proliferation
Protocol: as §1

recombinant human CK2 = molecular target: T1, recombinant human CK2 (Homo sapiens, UniProt P68400); assay: CK2 Kinase Assay (radiometric, 33P-ATP); assay type: biochemical; settings: final ATP concentration 15 μM, 10 min at 30° C., eight concentrations; read-out: protein kinase CK2 IC50
T1 construct: purchased Millipore
Protocol: CK2 Kinase Assay was conducted using the protocol as described in Pierre F. et al; J. Med. Chem. 2011, 54, 635-654. The tested compounds in aqueous solution were added at a volume of 10 μL to a reaction mixture comprising 10 μL of assay dilution buffer (ADB; 20 mM MOPS, pH 7.2, 25 mM β-glycerol phosphate, 5 mM EGTA, 1 mM sodium orthovanadate, and 1 mM dithiothreitol), 10 μL of substrate peptide (RRRDDDSDDD, dissolved in ADB at a concentration of 1 mM), 10 μL of recombinant human CK2 (RROP-holoenzyme, 25 ng dissolved in ADB; Millipore). Reactions were initiated by the addition of 10 μL of ATP solution (90% 75 mMMgCl2, 75 μM ATP (final ATP concentration:15 μM) dissolved in ADB; 10% [γ-33P] ATP (stock 1 mCi/100 μL; 3000 Ci/mmol (Perkin-Elmer) and maintained for 10 min at 30° C. The reactions were quenched with 100 μL of 0.75% phosphoric acid and then transferred to and filtered through a phosphor cellulose filter plate (Millipore). After washing each well five times with 0.75% phosphoric acid, the plate was dried under vacuum for 5 min and, following the addition of 15 μL of scintillation fluid to each well, the residual radioactivity was measured using a Wallac luminescence counter. The IC50 values were derived from eight concentrations of test inhibitors.

A375 (melanoma) = assay: In vitro cytotoxic activity MTT assay, A375; assay type: cell-based; settings: Homo sapiens, A-375; A375 (melanoma) cells, exposed for 96 hours; read-out: IC50, concentration of compound eliciting a 50% inhibition of cell proliferation
Protocol: as §1

MDA-MB-231 (breast) = assay: In vitro cytotoxic activity MTT assay, MDA-MB-231; assay type: cell-based; settings: Homo sapiens; MDA-MB-231 (breast) cells, exposed for 96 hours; read-out: IC50, concentration of compound eliciting a 50% inhibition of cell proliferation
Protocol: as §1

HCT116 (colon) = assay: In vitro cytotoxic activity MTT assay, HCT116; assay type: cell-based; settings: Homo sapiens, HCT-116; HCT116 (colon) cells, exposed for 96 hours; read-out: IC50, concentration of compound eliciting a 50% inhibition of cell proliferation
Protocol: as §1

T1 sequence (P68400 whole entry): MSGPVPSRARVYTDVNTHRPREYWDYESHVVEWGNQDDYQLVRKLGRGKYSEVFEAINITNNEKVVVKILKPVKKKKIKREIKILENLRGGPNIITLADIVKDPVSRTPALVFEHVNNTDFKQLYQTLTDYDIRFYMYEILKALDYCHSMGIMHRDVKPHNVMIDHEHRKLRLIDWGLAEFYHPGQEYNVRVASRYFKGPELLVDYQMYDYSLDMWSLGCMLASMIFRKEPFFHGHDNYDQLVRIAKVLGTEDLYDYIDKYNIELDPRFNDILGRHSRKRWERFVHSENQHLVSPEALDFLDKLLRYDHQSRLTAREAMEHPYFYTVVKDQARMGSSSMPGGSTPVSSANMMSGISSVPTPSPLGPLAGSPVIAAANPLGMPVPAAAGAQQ
T1 sequence (P67870 whole entry partner): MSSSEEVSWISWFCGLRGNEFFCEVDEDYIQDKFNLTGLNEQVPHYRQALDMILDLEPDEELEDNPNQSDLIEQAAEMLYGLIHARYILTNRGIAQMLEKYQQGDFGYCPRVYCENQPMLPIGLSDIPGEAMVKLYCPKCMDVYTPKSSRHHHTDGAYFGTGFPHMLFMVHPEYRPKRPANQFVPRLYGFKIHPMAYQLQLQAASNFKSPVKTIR

For `O=C(O)c1ccc2[nH]c3ncnc(Nc4cccc(Cl)c4)c3c2c1` [Example 1, 4-((3-chlorophenyl)amino)-9H-pyrimido[4,5-b]indole-6-carboxylic acid], the pIC50 (PC3 (prostate)) was 5.85, the pIC50 (MCF7 (breast)) was 5.34 and the pIC50 (MIAPaCa-2 (pancreas)) was 6.05. The pIC50 (HL60 (leukemia)) was 5.52, the pIC50 (H1299 (lung)) was 5.35 and the pIC50 (recombinant human CK2) was 7.17. The pIC50 (A375 (melanoma)) was 5.48, the pIC50 (MDA-MB-231 (breast)) was 5.54 and the pIC50 (HCT116 (colon)) was 5.74.
